Data set [1] relates to M2-10B4 mouse marrow stromal cell line. Description: Matrix mineralization in M2 cells (von Kossa staining, 45Ca incorporation assay). The class given is cell-based. To be noted: for inhibition of oxysterol-induced mineralization: with 22R+20S (2.5 μM each), 10 days, 45Ca incorporation (FIGS. 9B, 9F). As to the method: (§1) Cells: M2-10B4 mouse marrow stromal cell line obtained from American Type Culture Collection (ATCC, Rockville, Md., U.S.A.) was derived from bone marrow stromal cells of a (C57BL/6J×C3H/HeJ) F1 mouse, and support human and murine myelopoiesis in long-term cultures (as per ATCC) and have the ability to differentiate into osteoblastic and adipocytic cells. Unless specified, these cells were cultured in RPMI 1640 containing 10% heat-inactivated FBS, and supplemented with 1 mM sodium pyruvate, 100 U/ml penicillin, and 100 […] (all from Irvine Scientific).
(§2) Von Kossa and oil red O staining—Matrix mineralization in cell monolayers was detected by silver nitrate staining as previously described. Oil red O staining for detection of adipocytes was performed as previously described.
^45Ca incorporation assay—Matrix mineralization in cell monolayers was quantified using the ^45Ca incorporation assay as previously described.
M2 cells at confluence were treated in osteogenic medium with control vehicle or 5 μM oxysterols, alone or in combination as indicated. After 14 days, mineralization was identified by a von Kossa staining, which appears black. FIG. 3C is a depiction of von Kossa staining of M2 cells exposed to various conditions.
M2 cells were treated with control vehicle (C) or a combination of 22R and 20S oxysterols at increasing concentrations. After 14 days, matrix mineralization in cultures was quantified using a ^45Ca incorporation assay. […] FIG. 3D is a bar graph depicting the effect of a combination of oxysterols at various doses on calcium incorporation in M2 cells.
(§3) Next, a combination of 22R and 20S oxysterols (RS, 2.5 μM each) were added in the presence or absence of SC as indicated. After 3 days, ALP activity was measured as described earlier. […] (B) M2 cells were treated as described in (A) and after 10 days matrix mineralization in cultures was quantified by a ^45Ca incorporation assay as described earlier. Results from a representative of three experiments are shown, reported as the mean±SD of quadruplicate determinations, normalized to protein concentration. (C) M2 cells were pretreated with 20 μM SC for 4 hours, followed by the addition of RS in the presence or absence of SC as described above. After 8 days, total RNA was isolated and analyzed for osteocalcin (Osc) and 18S rRNA expression by Northern blotting as previously described. Data from densitometric analysis of the Northern blot is shown in (D) as the average of duplicate samples, normalized to 18S rRNA. (E) M2 cells at confluence were pretreated for 2 hours with control vehicle (C), or PLA2 inhibitors ACA (25 μM) and MCOCF3 (MC, 20 μM), in osteogenic medium. Next, a combination of 22R and 20S oxysterols (RS, 2.5 μM) was added in the presence or absence of the inhibitors as indicated. After 3 days, ALP activity was measured as previously described. Data from a representative of three experiments are shown, reported as the mean±SD of quadruplicate determinations, normalized to protein concentration (p<0.01 for RS vs. RS+ACA and RS+MC). (F) M2 cells were treated as described in (E). After 10 days, matrix mineralization in cultures was quantified using a ^45Ca incorporation assay as previously described. Results from a representative of three experiments are shown, reported as the mean of quadruplicate determinations±SD, normalized to protein concentration (p<0.01 for RS vs. RS+ACA and RS+MC).
(A) M2 cells at confluence were pretreated for four hours with RPMI containing 1% FBS, followed by treatment with control vehicle or 5 μM 20S oxysterol for 1, 4, or 8 hours. Next total cell extracts were prepared and analyzed for levels of native or phosphorylated ERK (pERK) using specific antibodies as previously described.

For data set [2] the test system is unchanged. Description: Alkaline phosphatase (ALP) activity assay in M2 cells. The class given is cell-based. The following applies: for inhibition of oxysterol-induced alkaline phosphatase activity: with 22R+20S (2.5 μM each), 3 days, SC 10 μM, ACA 25 μM, MC 20 μM (FIGS. 9A, 9E). As to the method: as §1
Alkaline phosphatase activity assay: Colorimetric alkaline phosphatase (ALP) activity assay on whole cell extracts was performed as previously described. […]
Test 2: M2 cells were grown in RPMI medium containing 10% fetal bovine serum (FBS). At confluence, the cells were treated in RPMI containing 5% FBS plus ascorbate at 50 μg/ml and β-glycerophosphate at 3 mM to induce osteoblastic differentiation. Adipogenic differentiation was induced by treating the cells in growth medium plus 10 ˜M troglitazone. A vehicle (C) or oxysterol treatment was applied to cells in a variety of doses (in μM): 20S-Hydroxycholesterol, 25-Hydroxycholesterol, 22R-Hydroxycholesterol; 22S-Hydroxycholesterol; 7-ketocholesterol. Cells were always treated at 90% confluence. After 4 days, alkaline phosphatase activity was determined in whole cell lysates and normalized to protein. Alternatively, MSC cultures were prepared and treated with oxysterols as described above. Cells were treated at 90% confluence with the combination of 22R-Hydroxycholesterol and 20S-Hydroxycholesterol, each at 5 μM, for 4 to 96 hours. The oxysterols where removed and fresh media without oxysterols was added for a total duration of 96 hours. Alkaline phosphatase activity was measured in whole cell extracts and normalized to protein.
M2 cells were treated at 90% confluence with vehicle (C), or oxysterols 20S-Hydroxycholesterol or 22S-Hydroxycholesterol at (0.5 μM) or (1 μM), in the absence or presence of cytochrome P450 inhibitor (SKF525A 10 μM (+)). MSC cultures were also treated at 90% confluence with vehicle (C), or 20S-Hydroxycholesterol (2 μM), in the absence or presence of cytochrome P450 […] (Benzylimidazole 50 μM) or SKF525A (10 μM). After 4 days, alkaline phosphatase activity was measured in whole cell extracts and normalized to protein. […]

Data set [3] relates to marrow stromal cells. Description: Osteogenic activity/effects of oxysterol combinations in marrow stromal cells, readout not specified. It is filed as cell-based, mouse. To be noted: NS-398 at 20 μM, M2 cells.
Data set [4] concerns M2 cells. As to the kind of experiment: Non-toxic doses in M2 cell cultures. It is filed as cell-based, mouse.
The test system of data set [5] is M2 cells. Description: Adipogenesis of M2 cells, oil Red O staining and adipocyte count. It is filed as cell-based, mouse. To be noted: 10 μM Tro, 10 μM oxysterols, alone or in combination, 10 days (FIG. 7). As to the method: as §2
Test 1: M2 cells at 90% confluence were treated with vehicle (C), PPAR-γ activator, troglitazone 10 uM (Tro), alone or in combination with 10 μM oxysterols 20S-, 22R-, or 25S-hydroxycholesterol. After 8 days, adipocytes were identified by oil Red O staining and quantified by counting under a phase contrast microscope. FIG. 6A is a bar graph depicting the effect of oxysterols on reducing adipogenesis of MSC.
Test 2: (A) M2 cells at confluence were treated in RPMI containing 10% FBS with control vehicle or 10 μM troglitazone (Tro) in the absence or presence of 10 μM 20S or 22S oxysterols. After 10 days, adipocytes were visualized by oil Red O staining and quantified by light microscopy, shown in (B). Data from a representative of four experiments are shown, reported as the mean SD of quadruplicate determinations (p<0.001 for Tro vs. Tro+20S and Tro+22S). (C) M2 cells were treated at confluence with 10 μM Tro, alone or in combination with 10 μM 20S oxysterol. After 10 days, total RNA was isolated and analyzed for lipoprotein lipase (LPL), adipocyte P2 gene (aP2) or 18S rRNA expression by Northern blotting as described (Ref). Data from densitometric analysis of the Northern blot is shown in (D) as the average of duplicate samples, normalized to 18S rRNA.

Data set [6] has as its system osteocalcin mRNA in M2 cells. As to the kind of experiment: Northern blotting for osteocalcin mRNA in M2 cells. It is filed as cell-based, mouse. To be noted: TO treatment, after 10 days. As to the method: The extent of gene induction was determined by densitometry.
After 4 and 8 days, total RNA from duplicate samples was isolated and analyzed for osteocalcin (Osc) and 28S rRNA expression by Northern blotting as described. FIG. 3E is a radiogram of Northern blotting for osteocalcin mRNA in M2 cells exposed to a control or combination of oxysterols for 4 or 8 days. FIG. 3F is a bar graph depicting the relative demsometric units of osteocalcin mRNA in M2 cells exposed to a control or combination of oxysterols for 4 or 8 days. Data from densitometric analysis of the Northern blot is shown in (F) as the average of duplicate samples, normalized to 28S rRNA.
as §3, with “(E).” for “(E). After 10 days, matrix mineralization in cultures was quantified using a ^45Ca incorporation assay as previously described. Results from a representative of three experiments are shown, reported as the mean of quadruplicate determinations±SD, normalized to protein concentration (p<0.01 for RS vs. RS+ACA and RS+MC).”

Results on 9 compounds are retold here after patent US9532994B2, “Agents and methods for enhancing bone formation by oxysterols in combination with bone morphogenic proteins” (THE REGENTS OF THE UNIVERSITY OF CALIFORNIA, priority 2003, dated 2017).

On to `COc1cccc(-c2cc(=O)c3ccccc3o2)c1N` [PD98059], for which the “inhibition of oxysterol-induced mineralization by ERK pathway inhibitor” value in data set [1] (20 μM PD with 22R+20S (5 μM each), 10 days (FIG. 10B)) was “inhibited”. `CCCCC/C=C\C/C=C\C/C=C\C/C=C\CCCC(=O)C(F)(F)F` [AACOCF3]: the “inhibition of oxysterol-induced mineralization” value in data set [1] is recorded as “inhibited”. Also, the “inhibition of oxysterol-induced alkaline phosphatase activity” value in data set [2] is given as “inhibited”. As to `CS(=O)(=O)Nc1ccc([N+](=O)[O-])cc1OC1CCCCC1` [NS-398], the “inhibition of osteogenic effects of oxysterol combination” value in data set [3] is on record as “negligible inhibitory effects”. In data set [4], this compound showed a highest non-toxic dose of 20 µM. For the compound `CCCC(C(=O)OCCN(CC)CC)(c1ccccc1)c1ccccc1.Cl` [SKF525A], the “effect on osteogenic effects of the oxysterols (alkaline phosphatase activity)” value in data set [2] (SKF525A 10 μM with 20S or 22S at 0.5 or 1 μM, 4 days (FIG. 5A)) was “potentiated”. With `CC(C)CCC[C@@H](C)[C@H]1CC[C@H]2[C@@H]3C(=O)C=C4C[C@@H](O)CC[C@]4(C)[C@H]3CC[C@]12C` [7K, 7-ketocholesterol, reference compound], in data set [2] (10 μM oxysterols, osteogenic medium, 3 days (FIG. 3A)), the “induction of alkaline phosphatase activity” value is “did not induce”. For the same compound, the “adipogenesis induced by troglitazone” value in data set [5] is “unable to inhibit”.

As to `CCCCCc1ccc(/C=C/C(=O)Nc2ccccc2C(=O)O)cc1` [ACA], in data set [1], the “inhibition of oxysterol-induced mineralization” value is “inhibited”. Besides, the “inhibition of oxysterol-induced alkaline phosphatase activity” value in data set [2] is reported as “inhibited”. Consider `CCCCC[C@H](O)/C=C/[C@H]1[C@H](O)CC(=O)[C@@H]1C/C=C\CCCC(=O)O` [PGE2, prostaglandin E2], for which the “reversal of effect of COX-1 inhibitor on oxysterol-induced alkaline phosphatase activity” value in data set [2] (1 μM PGE2, data not shown) is on record as “reversed”.

With `CCCCC/C=C\C/C=C\C/C=C\C/C=C\CCCC(=O)O` [arachidonic acid], the “reversal of effect of PLA2 inhibitors on oxysterol-induced alkaline phosphatase activity” value in data set [2] (25 μM arachidonic acid, data not shown) is “reversed”.

Consider `O=S(=O)(c1ccccc1)N(CC(F)(F)F)c1ccc(C(O)(C(F)(F)F)C(F)(F)F)cc1` [TO, TO-901317], for which the induction of mineralization entry in data set [1] (TO treatment, after 10 days) is “did not induce”. In data set [6], the “induction of osteocalcin gene expression” value was “did not induce”. The “osteoblastic differentiation (alkaline phosphatase activity), LXR ligands” value in data set [2] (1-4 μM, 4 days (FIG. 8)) was “inhibited”. Further, the “inhibition of alkaline phosphatase activity” value in data set [2] (TO at 1-10 μM) is listed as “dose-dependent inhibition”. In addition, the alkaline phosphatase activity in data set [2] (ligands used at 10 μM, ±SD, control vehicle C: 18±2, p<0.01 for C vs. all ligands) turned out to be 3±0.5 activity units/mg protein.
